Measured values taken from the OligoGym collection.
Where “and” joins values, the source holds several entries; their conditions need not be identical. Equal values may be shown once. After the bases stand the sugars from the 5' end (letter, count) and the backbone: PS all phosphorothioate, else s phosphorothioate and o phosphodiester by linkage. Methylation of C is not given here. k = constrained ethyl (cEt); d = 2'-deoxy (DNA)

Target: MALAT1
Conditions: ASO, A431, 0.005 µM

Sequence	target mRNA inhibition
TCAACCTCCGTCATGT (sugars k3 d10 k3, PS)	32%
GCAATTCAAAATCCTG (sugars k3 d10 k3, PS)	51%
CACTGATCACTTTAGA (sugars k3 d10 k3, PS)	41%
GTAAAAACAGGTCATC (sugars k3 d10 k3, PS)	21%
GCCAGTGGCCCACTCT (sugars k3 d10 k3, PS)	-8%
TACAACAAGTAAGCCC (sugars k3 d10 k3, PS)	20%
TGACACTTTCCTTGCC (sugars k3 d10 k3, PS)	66% and 46%
CTGAAGAGCATTGGAG (sugars k3 d10 k3, PS)	50%
GGCAAAAAGTAGTTCT (sugars k3 d10 k3, PS)	31%
GCCTTTGTGAGGGAGG (sugars k3 d10 k3, PS)	-23%
ATCACCTTCGGTTTAA (sugars k3 d10 k3, PS)	40%
AACTGATCTGACTTTG (sugars k3 d10 k3, PS)	34%
CAGTTACTCCAGCATA (sugars k3 d10 k3, PS)	24%
TATAATAGAGCTACTT (sugars k3 d10 k3, PS)	15%
AAACTTATCTGCGGTT (sugars k3 d10 k3, PS)	19%
AGCTACCATCAGAAGA (sugars k3 d10 k3, PS)	34%
TGGAAACCAGGAGTGC (sugars k3 d10 k3, PS)	14%
GTACATTTTGCCCTTA (sugars k3 d10 k3, PS)	64% and 45%
TCCAATACTTGTCTTA (sugars k3 d10 k3, PS)	68% and 75%
TCTTAGTAACCTATTG (sugars k3 d10 k3, PS)	19%
CGGTTAAAAATAGGTT (sugars k3 d10 k3, PS)	6%

Sequence	target mRNA inhibition
GATCACCTTCCGCCGC (sugars k3 d10 k3, PS)	6%
TCAATAGTACTATAGC (sugars k3 d10 k3, PS)	25%
AGACAGATTAGTAGTC (sugars k3 d10 k3, PS)	-8%
TACAGAAAGAGTCCTG (sugars k3 d10 k3, PS)	17%
CAAAATCCTGAATGGC (sugars k3 d10 k3, PS)	10%
ATGGAAAGCGAGTTCA (sugars k3 d10 k3, PS)	14%
ATTCTAGACAGACCTA (sugars k3 d10 k3, PS)	33%
CCCATTATATTAGAAA (sugars k3 d10 k3, PS)	10%
CCCCAAGACCAAACTG (sugars k3 d10 k3, PS)	-9%
CTTCTGAACCGGAGCA (sugars k3 d10 k3, PS)	-27%
TGCTAGTCCTCAGGAT (sugars k3 d10 k3, PS)	19%
CTCTGATCTGCGGCCC (sugars k3 d10 k3, PS)	-6%
ACAGAAGTCTCGGGCT (sugars k3 d10 k3, PS)	19%
TAATTACTCTTGATCT (sugars k3 d10 k3, PS)	48% and 72%
TTCGAGAAATCGGAGC (sugars k3 d10 k3, PS)	-11%
TGTATTAATCTCTATC (sugars k3 d10 k3, PS)	41%
CACCAAATTGCACTCG (sugars k3 d10 k3, PS)	54% and 73%
CATACCTTAACATCTT (sugars k3 d10 k3, PS)	32%
GCTGAAATTGTCTCAA (sugars k3 d10 k3, PS)	45%
GAGTATGCTGATAAAC (sugars k3 d10 k3, PS)	37%
AAATACTTCATTACCC (sugars k3 d10 k3, PS)	24%

Sequence	target mRNA inhibition
ACCTCTTAAAGCACTT (sugars k3 d10 k3, PS)	18%
GAGGGACAGTAGGTAT (sugars k3 d10 k3, PS)	19%
GAACTCCACAGCTCTT (sugars k3 d10 k3, PS)	33%
CTAGATTCACTGAATC (sugars k3 d10 k3, PS)	7%
TTCAGACCTTCTGAAC (sugars k3 d10 k3, PS)	-8%
GCAGTTTCTATAGTAG (sugars k3 d10 k3, PS)	45%
GATCTTGAATTACTTC (sugars k3 d10 k3, PS)	49%
AGTCACTGGATAAGTA (sugars k3 d10 k3, PS)	41%
TGCAGGGACGGTTGAG (sugars k3 d10 k3, PS)	-22%
GAGGGAGTTGAGGCAA (sugars k3 d10 k3, PS)	24%
CTACTCTTCTAAGTCT (sugars k3 d10 k3, PS)	49%
AGCCTTTATCACTCAG (sugars k3 d10 k3, PS)	35%
CCAACCGTAACAGGCC (sugars k3 d10 k3, PS)	27%
CCTACTTTAAGCCTTC (sugars k3 d10 k3, PS)	35%
ACAGCTAAGATAGCAG (sugars k3 d10 k3, PS)	2%
TTAAAAGATCGCCTTC (sugars k3 d10 k3, PS)	43%
ACGAAGAGATACCTGT (sugars k3 d10 k3, PS)	18%
CGCTAAGATGCTAGCT (sugars k3 d10 k3, PS)	-6%
TAAAAGATCGCCTTCA (sugars k3 d10 k3, PS)	41%
AGTTACATGTTCCCAC (sugars k3 d10 k3, PS)	33%
AAAATGGCGGACTTTC (sugars k3 d10 k3, PS)	30%

Sequence	target mRNA inhibition
AATCATTGGGAGTTAC (sugars k3 d10 k3, PS)	24%
AGACAGACCTAAGGGA (sugars k3 d10 k3, PS)	21%
CCTCAATCCACTTGAT (sugars k3 d10 k3, PS)	-2%
CCGCTTGAGATTTGGG (sugars k3 d10 k3, PS)	28%
ATACATCAAGGATGTA (sugars k3 d10 k3, PS)	19%
AGCTGCAGGCTATTAC (sugars k3 d10 k3, PS)	39%
CTAAAAGCATTGCCCT (sugars k3 d10 k3, PS)	35%
ACTACCAGCCATTTCT (sugars k3 d10 k3, PS)	49%
CCCCAAAAGCTCTATA (sugars k3 d10 k3, PS)	8%
CTATTCTTTTCTTCGC (sugars k3 d10 k3, PS)	37%
GGCGGACTTTCTCCCC (sugars k3 d10 k3, PS)	-17%
TTCCATTACGCAACTG (sugars k3 d10 k3, PS)	-21%
TCCCTAACATGCAATA (sugars k3 d10 k3, PS)	30%
TCAATTAATGCTAGTC (sugars k3 d10 k3, PS)	35%
CCAAAAGCCTTCTGCC (sugars k3 d10 k3, PS)	34%
AGAAATCGGAGCAGCA (sugars k3 d10 k3, PS)	9%
AGATTCACTGAATCCA (sugars k3 d10 k3, PS)	6%
GCCCCCTCAGCAGAAG (sugars k3 d10 k3, PS)	25%
